This series in a line: log k′ (degree of lipophilic character) by gradient HPLC. In kind it is physicochemical. The settings on record: XTerra MS C18 column; acetonitrile/pH6.8 buffer gradient 5:95-95:5/20 min. As for the experimental part:
As to each compound, the measurement results of NMR or log k′ were disclosed.
log k′ is a value which means degree of the lipophilic character, and is calculated by the following formula. log k′=log(tR−t0)/t0 • tR: retention time of compound under gradient condition • t0: retention time of standard material not retained in column
XTerra MS C18 5 μm, 2.1×100 mm column (made by Waters) was used for measurement. The elution was a straight line inclination of acetonitrile/pH6.8 buffer (5:95˜95:5/20 min) at flow velocity 0.25 mL/min.

For the molecule `CONC(=O)C(C)(C)/C=C/n1ncc(C(=O)N[C@H]2C3CC4CC2C[C@](OC(N)=O)(C4)C3)c1OCC(C)C` [Compound I-65], the “log k′” value stood at 0.838.

Consider `COC(=O)NC(C)(C)/C=C/n1ncc(C(=O)N[C@H]2C3CC4CC2C[C@](COC(N)=O)(C4)C3)c1OCC(C)C` [Compound I-17], for which the “log k′” value came out at 0.916. For `CC(=O)NC(C)(C)CCn1ncc(C(=O)N[C@H]2C3CC4CC2C[C@](COC(N)=O)(C4)C3)c1OCC(C)C` [Compound I-57], the “log k′” value came to 0.852.

Regarding `CC(=O)NC(C)(C)CCn1ncc(C(=O)N[C@H]2C3CC4CC2C[C@](CO)(C4)C3)c1OCC(C)C` [Compound I-16], the “log k′” value is 0.842. With `CNC(=O)C(C)(C)/C=C/n1ncc(C(=O)N[C@H]2C3CC4CC2C[C@](OC(N)=O)(C4)C3)c1OCC(C)C` [Compound I-61], the “log k′” value turned out to be 0.841. `CC(=O)NCC(C)(C)/C=C/n1ncc(C(=O)N[C@H]2C3CC4CC2C[C@](OC(N)=O)(C4)C3)c1OCC(C)C` [Compound I-68]: the “log k′” value turned out to be 0.85.

In the case of `CC(C)COc1c(C(=O)N[C@H]2C3CC4CC2C[C@](O)(C4)C3)cnn1/C=C/C(C)(C)NC(=O)C1CCOCC1` [Compound I-79], the “log k′” value came to 0.818. Regarding `CC(C)COc1c(C(=O)N[C@H]2C3CC4CC2C[C@](COC(N)=O)(C4)C3)cnn1/C=C/C(C)(C)CO` [Compound I-74], the “log k′” value was found to be 0.896. As to `CC(C)COc1c(C(=O)NC2C3CC4CC2CC(OC(N)=O)(C4)C3)cnn1/C=C/C(C)(C)CO` (stereo not shown) [Compound I-73], the “log k′” value was found to be 0.876. The value for `CC(=O)NC(C)(C)/C=C/n1ncc(C(=O)N[C@H]2C3CC4CC2C[C@](CO)(C4)C3)c1OC(C)C` [Compound I-31] was 0.819; that for `COC(=O)NC(C)(C)/C=C/n1ncc(C(=O)N[C@H]2C3CCCC2C[C@@H](COC(N)=O)C3)c1OCC(C)C` [Compound I-46] was 0.913; that for `CC(C)COc1c(C(=O)N[C@H]2C3CC4CC2C[C@](O)(C4)C3)cnn1/C=C/C(C)(C)NC(=O)CC(C)C` [Compound I-26] was 0.895. The value for `CC(=O)NCC(C)(C)/C=C/n1ncc(C(=O)N[C@H]2C3CC4CC2C[C@](O)(C4)C3)c1OCC(C)C` [Compound I-64] was 0.814; that for `CC(C)COc1c(C(=O)N[C@H]2C3CC4CC2C[C@](OC(N)=O)(C4)C3)cnn1/C=C/C(C)(C)NC(=O)CCc1ccccc1` [Compound I-76] was 0.946; that for `CC(C)COc1c(C(=O)N[C@H]2C3CC4CC2C[C@](OC(N)=O)(C4)C3)cnn1/C=C/C(C)(C)NC(=O)CC(C)C` [Compound I-28] was 0.927. `CC(C)COc1c(C(=O)N[C@H]2C3CC4CC2C[C@](OC(N)=O)(C4)C3)cnn1/C=C/C(C)(C)NC(=O)C1CCCC1` [Compound I-49]: the “log k′” value is on record as 0.945.

On to `CC(C)COc1c(C(=O)N[C@H]2C3CC4CC2C[C@](OC(N)=O)(C4)C3)cnn1/C=C/C(C)(C)NC(=O)C(C)C` [Compound I-27], for which the “log k′” value came to 0.903. For `CC(=O)NC(C)(C)CCn1ncc(C(=O)N[C@H]2C3CC4CC2C[C@](OC(N)=O)(C4)C3)c1OCC(C)C` [Compound I-11], the “log k′” value was found to be 0.831. Turning to `CCCC(=O)NC(C)(C)/C=C/n1ncc(C(=O)N[C@H]2C3CC4CC2C[C@](O)(C4)C3)c1OCC(C)C` [Compound I-34], the “log k′” value amounted to 0.877.

For the molecule `CC(=O)NC(C)(C)/C=C/n1ncc(C(=O)N[C@H]2C3CC4CC2C[C@](OC(N)=O)(C4)C3)c1OCC(C)C` [Compound I-10], the “log k′” value worked out at 0.798. Regarding `CC(C)COc1c(C(=O)N[C@H]2C3CC4CC2C[C@](COC(N)=O)(C4)C3)cnn1/C=C/C(C)(C)C(=O)NC(N)=O` [Compound I-83], the “log k′” value was 0.87. On to `CC(C)COc1c(C(=O)N[C@H]2C3CC4CC2C[C@](OC(N)=O)(C4)C3)cnn1/C=C/C(C)(C)N1CCOC1=O` [Compound I-22], for which the “log k′” value stood at 0.879. Turning to `CC(=O)NC(C)(C)/C=C/n1ncc(C(=O)N[C@H]2C3CCCC2C[C@@H](COC(N)=O)C3)c1OCC(C)C` [Compound I-45], the “log k′” value was 0.865. Turning to `CC(=O)NC[C@]12CC3CC(C1)[C@@H](NC(=O)c1cnn(/C=C/C(C)(C)NC(C)=O)c1OCC(C)C)C(C3)C2` [Compound I-56], the “log k′” value is recorded as 0.838. The value for `COC(=O)NC(C)(C)/C=C/n1ncc(C(=O)N[C@H]2C3CC4CC2C[C@](CO)(C4)C3)c1OC(C)C` [Compound I-23] was 0.864; that for `CCC(=O)N[C@]12CC3CC(C1)[C@@H](NC(=O)c1cnn(/C=C/C(C)(C)NC(=O)OC)c1OCC(C)C)C(C3)C2` [Compound I-21] was 0.909. `COC(=O)NC(C)(C)/C=C/n1ncc(C(=O)N[C@H]2C3CC4CC2C[C@](CO)(C4)C3)c1OCC(C)C` [Compound I-19]: the “log k′” value worked out at 0.907. As to `CC(C)COc1c(C(=O)N[C@H]2C3CC4CC2C[C@](O)(C4)C3)cnn1/C=C/C(C)(C)NC(=O)C(C)C` [Compound I-25], the “log k′” value was 0.87. Consider `CC(C)COc1c(C(=O)NC2C3CC4(O)CC2CC(O)(C3)C4)cnn1/C=C/C(C)(C)C(N)=O` (stereo not shown) [Compound I-82], for which the “log k′” value came to 0.682. On to `CONC(=O)[C@]12CC3CC(C1)[C@@H](NC(=O)c1cnn(/C=C/C(C)(C)NC(C)=O)c1OCC(C)C)C(C3)C2` [Compound I-60], for which the “log k′” value worked out at 0.813.

As for `C=CCC1C2CCC(C2)C1NC(=O)c1cnn(/C=C/C(C)(C)NC(C)=O)c1OCC(C)C` (stereo not shown) [Compound I-14], the “log k′” value is 0.981. Consider `COC(=O)NC(C)(C)CCn1ncc(C(=O)N[C@H]2C3CC4CC2C[C@](COC(N)=O)(C4)C3)c1OCC(C)C` [Compound I-58], for which the “log k′” value is reported as 0.899. In the case of `CCC(=O)NC(C)(C)/C=C/n1ncc(C(=O)N[C@H]2C3CCCC2C[C@@H](COC(N)=O)C3)c1OCC(C)C` [Compound I-70], the “log k′” value is recorded as 0.882. The value for `CC(=O)NC(C)(C)/C=C/n1ncc(C(=O)N[C@H]2C3CCCC2C[C@H](C(N)=O)C3)c1OCC(C)C` [Compound I-5] was 0.795; that for `CC(=O)NC(C)(C)/C=C/n1ncc(C(=O)N[C@H]2C3CCCC2C[C@@H](CO)C3)c1OCC(C)C` [Compound I-43] was 0.851; that for `CC(C)COc1c(C(=O)N[C@H]2C3CC4CC2C[C@](OC(N)=O)(C4)C3)cnn1/C=C/C(C)(C)NC(=O)CCC1CCCC1` [Compound I-50] was 0.989. Take `CC(=O)NC(C)(C)/C=C/n1ncc(C(=O)N[C@H]2C3CC4CC2C[C@](C(=O)NC(N)=O)(C4)C3)c1OCC(C)C` [Compound I-67]: the “log k′” value was 0.82. `CC(C)COc1c(C(=O)NC2CCCCCCCCC2)cnn1/C=C/C(C)(C)C(N)=O` [Compound I-2]: the “log k′” value is 1.014. With `CC(C)COc1c(C(=O)N[C@H]2C3CC4CC2C[C@](O)(C4)C3)cnn1/C=C/C(C)(C)NC(=O)C1CCCC1` [Compound I-35], the “log k′” value is 0.921. Then `COC(=O)NC(C)(C)/C=C/n1ncc(C(=O)N[C@H]2C3CCCC2C[C@@H](C#N)C3)c1OCC(C)C` [Compound I-33], with 0.955; and `Cc1nnc(C(C)(C)/C=C/n2ncc(C(=O)N[C@H]3C4CC5CC3C[C@](OC(N)=O)(C5)C4)c2OCC(C)C)o1` [Compound I-8], with 0.883; and `CC(C)COc1c(C(=O)N[C@H]2C3CC4CC2C[C@](O)(C4)C3)cnn1/C=C/C(C)(C)NC(=O)N1CCOCC1` [Compound I-81], with 0.813. Take `CCC(=O)NC(C)(C)/C=C/n1ncc(C(=O)N[C@H]2C3CC4CC2C[C@](OC(N)=O)(C4)C3)c1OCC(C)C` [Compound I-24]: the “log k′” value came out at 0.876. As for `CNC(=O)OC[C@]12CC3CC(C1)[C@@H](NC(=O)c1cnn(/C=C/C(C)(C)NC(C)=O)c1OCC(C)C)C(C3)C2` [Compound I-66], the “log k′” value is recorded as 0.886.

With `CONC(=O)C(C)(C)/C=C/n1ncc(C(=O)N[C@H]2C3CC4CC2C[C@](O)(C4)C3)c1OCC(C)C` [Compound I-62], the “log k′” value amounted to 0.794.

With `COC(=O)NC(C)(C)/C=C/n1ncc(C(=O)NC2CCCCCCCCC2)c1OCC(C)C` [Compound I-3], the “log k′” value is 1.066. As to `CC(=O)NC(C)(C)/C=C/n1ncc(C(=O)NC23CCC(C(N)=O)(CC2)C3)c1OCC(C)C` [Compound I-12], the “log k′” value worked out at 0.763. The value for `CC(C)COc1c(C(=O)N[C@H]2C3CC4CC2C[C@](OC(N)=O)(C4)C3)cnn1/C=C/C(C)(C)NC(=O)COc1ccccc1` [Compound I-75] was 0.95. Take `CC(C)COc1c(C(=O)N[C@H]2C3CC4CC2C[C@](OC(N)=O)(C4)C3)cnn1/C=C/C(C)(C)C(=O)NC(N)=O` [Compound I-18]: the “log k′” value is recorded as 0.866. For the molecule `CCC(=O)NC(C)(C)/C=C/n1ncc(C(=O)N[C@H]2C3CCCC2C[C@@H](CO)C3)c1OCC(C)C` [Compound I-69], the “log k′” value is given as 0.866. Then `COCC(=O)NC(C)(C)/C=C/n1ncc(C(=O)N[C@H]2C3CC4CC2C[C@](OC(N)=O)(C4)C3)c1OCC(C)C` [Compound I-51], with 0.882; and `CCNC(=O)C(C)(C)/C=C/n1ncc(C(=O)N[C@H]2C3CC4CC2C[C@](OC(N)=O)(C4)C3)c1OCC(C)C` [Compound I-71], with 0.868. Turning to `CC(C)COc1c(C(=O)N[C@H]2C3CC4CC2C[C@](OC(N)=O)(C4)C3)cnn1/C=C/C(C)(C)NC(=O)C1CCOCC1` [Compound I-80], the “log k′” value is on record as 0.852.

`CCONC(=O)[C@]12CC3CC(C1)[C@@H](NC(=O)c1cnn(/C=C/C(C)(C)NC(C)=O)c1OCC(C)C)C(C3)C2` [Compound I-59]: the “log k′” value was 0.833. Then `CCC(=O)N[C@]12CC3CC(C1)[C@@H](NC(=O)c1cnn(/C=C/C(C)(C)C(N)=O)c1OCC(C)C)C(C3)C2` [Compound I-20], with 0.845.

(Values after patent publication US8383622B2 (priority 2007, dated 2013).)
